Experimental data as given in PMC6946680, “Modulation of brain cation-Cl^− cotransport via the SPAK kinase inhibitor ZT-1a” (Nature Communications, 2020).
“And” between values parts separate entries of the source, which are not always exact repeats. Equal entries are not always repeated.

Assays:
[1] = system: mouse model of ischemic stroke (tMCAO); experiment: Adhesive-removal test after tMCAO; assay type: in vivo; conditions: for Adhesive removal time: Fig 7c, individual mice #1-#7
tSPAK tOSR1 = experiment: Immunoblot of total SPAK/OSR1 in ischemic mouse brain membrane and cytosol fractions; assay type: in vivo; conditions: Membrane, single samples
Excerpt: Supplement 41467_2019_13851_MOESM4_ESM.zip/Source Data.xlsx, sheet "Fig S11b and c" | column: tSPAK tOSR1/Na K pump (fold veh-CL)

human fibroblast cells = experiment: Cell volume measurement (calcein-AM) under hyperosmotic stress, human fibroblasts; conditions: hypertonic 515 mOsm; BMT or ZT-1a
pNKCC1 (pThr203/207/212) = experiment: Immunoblot of pNKCC1 in ischemic mouse brain membrane fractions; conditions: for NKCC1 / Na-K pumb / pThr203/207/212 / NKCC1: Fig 8, individual samples
KCC4 pThr926/pThr980 = experiment: Choroid plexus KCC4 phospho-IP/immunoblot in rat IVH model; assay type: in vivo
CSK = experiment: Kinase profiling panel; assay type: biochemical
Procedure: (§1) Supplementary Table 2. ZT-1a kinase profiling data6.
(§2) ZT-1a was tested at 10 and 1 µM against a panel of 140 recombinant kinases in an enzymatic
(§3) activity-based assay performed by the International Centre for Kinase Profiling in the MRC
(§4) Protein Phosphorylation and Ubiquitylation Unit. Values represent % residual kinase activity

TBK1 = experiment: Kinase profiling panel; assay type: biochemical
Procedure: as §1, §2, §3, §4

HIPK3 = experiment: Kinase profiling panel; assay type: biochemical
Procedure: as §1, §2, §3, §4

YES1 = experiment: Kinase profiling panel; assay type: biochemical
Procedure: as §1, §2, §3, §4

EPH-B3 = experiment: Kinase profiling panel; assay type: biochemical
Procedure: as §1, §2, §3, §4

TTBK1 = experiment: Kinase profiling panel; assay type: biochemical
Procedure: as §1, §2, §3, §4

TTBK2 = experiment: Kinase profiling panel; assay type: biochemical
Procedure: as §1, §2, §3, §4

MST4 = experiment: Kinase profiling panel; assay type: biochemical
Procedure: as §1, §2, §3, §4

DYRK1A = experiment: Kinase profiling panel; assay type: biochemical
Procedure: as §1, §2, §3, §4

STK33 = experiment: Kinase profiling panel; assay type: biochemical
Procedure: as §1, §2, §3, §4

EPH-A4 = experiment: Kinase profiling panel; assay type: biochemical
Procedure: as §1, §2, §3, §4

CHK1 = experiment: Kinase profiling panel; assay type: biochemical
Procedure: as §1, §2, §3, §4

PIM1 = experiment: Kinase profiling panel; assay type: biochemical
Procedure: as §1, §2, §3, §4

PLK1 = experiment: Kinase profiling panel; assay type: biochemical
Procedure: as §1, §2, §3, §4

ERK5 = experiment: Kinase profiling panel; assay type: biochemical
Procedure: as §1, §2, §3, §4

HIPK2 = experiment: Kinase profiling panel; assay type: biochemical
Procedure: as §1, §2, §3, §4

PAK6 = experiment: Kinase profiling panel; assay type: biochemical
Procedure: as §1, §2, §3, §4

JAK2 = experiment: Kinase profiling panel; assay type: biochemical
Procedure: as §1, §2, §3, §4

TTK = experiment: Kinase profiling panel; assay type: biochemical
Procedure: as §1, §2, §3, §4

ABL = experiment: Kinase profiling panel; assay type: biochemical
Procedure: as §1, §2, §3, §4

DYRK3 = experiment: Kinase profiling panel; assay type: biochemical
Procedure: as §1, §2, §3, §4

PAK4 = experiment: Kinase profiling panel; assay type: biochemical
Procedure: as §1, §2, §3, §4

EPH-B2 = experiment: Kinase profiling panel; assay type: biochemical
Procedure: as §1, §2, §3, §4

RSK1 = experiment: Kinase profiling panel; assay type: biochemical
Procedure: as §1, §2, §3, §4

NEK6 = experiment: Kinase profiling panel; assay type: biochemical
Procedure: as §1, §2, §3, §4

ROCK 2 = experiment: Kinase profiling panel; assay type: biochemical
Procedure: as §1, §2, §3, §4

VEG-FR = experiment: Kinase profiling panel; assay type: biochemical
Procedure: as §1, §2, §3, §4

NUAK1 = experiment: Kinase profiling panel; assay type: biochemical
Procedure: as §1, §2, §3, §4

RSK2 = experiment: Kinase profiling panel; assay type: biochemical
Procedure: as §1, §2, §3, §4

MAPKAP-K2 = experiment: Kinase profiling panel; assay type: biochemical
Procedure: as §1, §2, §3, §4

BTK = experiment: Kinase profiling panel; assay type: biochemical
Procedure: as §1, §2, §3, §4

MLK1 = experiment: Kinase profiling panel; assay type: biochemical
Procedure: as §1, §2, §3, §4

IGF-1R = experiment: Kinase profiling panel; assay type: biochemical
Procedure: as §1, §2, §3, §4

[2] = rat CPe 48 h post IVH + 1a, replicates

Compound: Cc1cc(C(C#N)c2ccc(Cl)cc2)c(Cl)cc1NC(=O)c1cc(Cl)ccc1O (stereo not drawn) [ZT-1a, 5-chloro-N-(5-chloro-4-((4-chlorophenyl)(cyano)methyl)-2-methylphenyl)-2-hydroxybenzamide]
- Adhesive removal time ([1]; Day 1): 15 seconds and 27 seconds and 70 seconds and 120 seconds and 28 seconds (2×) and 85 seconds
- Adhesive removal time ([1]; Day 3): 26 s and 16 s and 65 s and 29 s and 9 s and 41 s and 62 s
- Adhesive removal time ([1]; Day 5): 36 s and 27 s and 56 s and 35 s and 15 s and 28 s and 24 s
- Adhesive removal time ([1]; Day 7): 8 seconds (2×) and 14 seconds and 57 seconds and 19 seconds and 16 seconds and 28 seconds
- Adhesive removal time ([1]; Day -1 (baseline)): 25 seconds and 8 seconds and 7 seconds (2×) and 11 seconds and 13 seconds and 22 seconds
- adhesive contact and removal tests ([1]; ZT-1a 5.0 mg/kg, vs vehicle-control mice): significantly improved motor function
- tSPAK tOSR1/Na K pump (fold veh-CL) (tSPAK tOSR1): 0.93 fold veh-CL and 1.11 fold veh-CL and 1.70 fold veh-CL and 1.17 fold veh-CL and 1.58 fold veh-CL
- regulatory volume increase (RVI) in human fibroblast cells (human fibroblast cells): absence of RVI
- NKCC1 / Na-K pumb (pNKCC1 (pThr203/207/212); CL hemisphere): 1.613 and 1.481 and 1.6 and 1.576 and 1.424 and 1.642
- pThr203/207/212 / NKCC1 (pNKCC1 (pThr203/207/212); CL hemisphere): 0.451 and 0.437 and 0.265 and 0.378 and 0.429 and 0.303
- NKCC1 / Na-K pumb (pNKCC1 (pThr203/207/212); IL hemisphere): 1.43 and 1.528 and 1.481 and 1.417 and 1.587 and 1.394
- pThr203/207/212 / NKCC1 (pNKCC1 (pThr203/207/212); IL hemisphere): 0.461 and 0.418 and 0.385 and 0.452 and 0.396 and 0.372
- reduction of ischemia-induced elevation of pNKCC1 (pNKCC1 (pThr203/207/212); compared with vehicle-control mice): 55–65%
- ischemia-induced increase of pNKCC1 (pNKCC1 (pThr203/207/212); post-stroke ZT-1a 5 mg/kg, 24 h reperfusion): prevented
- KCC4 / Actin (KCC4 pThr926/pThr980; [2]): 2.09 and 2.11 and 2.1 and 2.05 and 2.15 and 2.12
- KCC4 pThr926 / Actin (KCC4 pThr926/pThr980; [2]): 0.241 and 0.354 and 0.43 and 0.261 and 0.376 and 0.487
- KCC4 pThr980 / Actin (KCC4 pThr926/pThr980; [2]): 0.279 and 0.426 and 0.524 and 0.299 and 0.447 and 0.541
- reduction of post-IVH KCC4 phosphorylation at Thr926/Thr980 (KCC4 pThr926/pThr980; rat CPe, ICV ZT-1a): ~ 2 fold
- % residual kinase activity (CSK; 1 µM): 96±8%
- % residual kinase activity (CSK; 10 µM): 106±29%
- % residual kinase activity (TBK1; 1 µM): 119±10%
- % residual kinase activity (TBK1; 10 µM): 94±3%
- % residual kinase activity (HIPK3; 1 µM): 84±3%
- % residual kinase activity (HIPK3; 10 µM): 76±2%
- % residual kinase activity (YES1; 1 µM): 109±3%
- % residual kinase activity (YES1; 10 µM): 98±7%
- % residual kinase activity (EPH-B3; 1 µM): 88±6%
- % residual kinase activity (EPH-B3; 10 µM): 84±6%
- % residual kinase activity (TTBK1; 1 µM): 119±5%
- % residual kinase activity (TTBK1; 10 µM): 102±2%
- % residual kinase activity (TTBK2; 1 µM): 101±32%
- % residual kinase activity (TTBK2; 10 µM): 98±34%
- % residual kinase activity (MST4; 1 µM): 63±10%
- % residual kinase activity (MST4; 10 µM): 63±0%
- % residual kinase activity (DYRK1A; 1 µM): 119±7%
- % residual kinase activity (DYRK1A; 10 µM): 103±1%
- % residual kinase activity (STK33; 1 µM): 114±7%
- % residual kinase activity (STK33; 10 µM): 100±5%
- % residual kinase activity (EPH-A4; 1 µM): 59±33%
- % residual kinase activity (EPH-A4; 10 µM): 90±11%
- % residual kinase activity (CHK1; 1 µM): 111±11%
- % residual kinase activity (CHK1; 10 µM): 109±8%
- % residual kinase activity (PIM1; 1 µM): 108±19%
- % residual kinase activity (PIM1; 10 µM): 101±8%
- % residual kinase activity (PLK1; 1 µM): 72±1%
- % residual kinase activity (PLK1; 10 µM): 93±21%
- % residual kinase activity (ERK5; 1 µM): 120±9%
- % residual kinase activity (ERK5; 10 µM): 114±5%
- % residual kinase activity (HIPK2; 1 µM): 90±14%
- % residual kinase activity (HIPK2; 10 µM): 91±4%
- % residual kinase activity (PAK6; 1 µM): 69±2%
- % residual kinase activity (PAK6; 10 µM): 75±4%
- % residual kinase activity (JAK2; 1 µM): 125±6%
- % residual kinase activity (JAK2; 10 µM): 123±8%
- % residual kinase activity (TTK; 1 µM): 104±2%
- % residual kinase activity (TTK; 10 µM): 91±5%
- % residual kinase activity (ABL; 1 µM): 85±4%
- % residual kinase activity (ABL; 10 µM): 68±16%
- % residual kinase activity (DYRK3; 1 µM): 113±6%
- % residual kinase activity (DYRK3; 10 µM): 56±15%
- % residual kinase activity (PAK4; 1 µM): 81±16%
- % residual kinase activity (PAK4; 10 µM): 51±3%
- % residual kinase activity (EPH-B2; 1 µM): 77±2%
- % residual kinase activity (EPH-B2; 10 µM): 81±8%
- % residual kinase activity (RSK1; 1 µM): 95±2%
- % residual kinase activity (RSK1; 10 µM): 87±4%
- % residual kinase activity (NEK6; 1 µM): 107±6%
- % residual kinase activity (NEK6; 10 µM): 108±1%
- % residual kinase activity (ROCK 2; 1 µM): 109±6%
- % residual kinase activity (ROCK 2; 10 µM): 101±10%
- % residual kinase activity (VEG-FR; 1 µM): 113±10%
- % residual kinase activity (VEG-FR; 10 µM): 88±28%
- % residual kinase activity (NUAK1; 1 µM): 52±7%
- % residual kinase activity (NUAK1; 10 µM): 61±16%
- % residual kinase activity (RSK2; 1 µM): 116±5%
- % residual kinase activity (RSK2; 10 µM): 101±3%
- % residual kinase activity (MAPKAP-K2; 1 µM): 91±13%
- % residual kinase activity (MAPKAP-K2; 10 µM): 13±7%
- % residual kinase activity (BTK; 1 µM): 113±1%
- % residual kinase activity (BTK; 10 µM): 73±2%
- % residual kinase activity (MLK1; 1 µM): 94±4%
- % residual kinase activity (MLK1; 10 µM): 81±21%
- % residual kinase activity (IGF-1R; 1 µM): 145±2%
- % residual kinase activity (IGF-1R; 10 µM): 123±3%
